Measured values: patent US12285407B2, “Bis-indolylmethane derivatives and uses thereof” (The University of The West Indies, priority 2018, dated 2025)
Like-named read-outs stand apart in the source and are kept apart here.

Assays:
[1] = test system: Escherichia coli ATCC 35218; assay: Broth microdilution MIC of SP-BIMs; format: cell-based; conditions: ATCC35218, SP-BIM alone, read-out: MIC Escherichia coli ATCC 35218
[2] = test system: Enterococcus faecium ATCC 19434; assay: Broth microdilution MIC of SP-BIMs; format: cell-based; conditions: ATCC19434, SP-BIM alone, read-out: MIC Enterococcus faecium ATCC 19434
[3] = test system: Streptococcus pyogenes ATCC 19615; assay: Broth microdilution MIC of SP-BIMs; format: cell-based; conditions: ATCC19615, SP-BIM alone, read-out: MIC Streptococcus pyogenes ATCC 19615
[4] = test system: Klebsiella pneumoniae ATCC 49472; assay: Broth microdilution MIC of SP-BIMs; format: cell-based; conditions: ATCC49472, SP-BIM alone, read-out: MIC Klebisella pneumoniae ATCC 49472
[5] = test system: Pseudomonas aeruginosa ATCC 27853; assay: Broth microdilution MIC of SP-BIMs; format: cell-based; conditions: ATCC27853, SP-BIM alone, read-out: MIC Pseudomonas aeruginosa ATCC 27853
[6] = test system: Bacillus cereus ATCC 14579; assay: Broth microdilution MIC of SP-BIMs; format: cell-based; conditions: ATCC14579, SP-BIM alone, read-out: MIC Bacillus cereus ATCC 14579
Streptococcus pneumoniae [7] = assay: Adjuvant broth microdilution (antibiotic MIC with SP-BIM at 50 μg/mL); format: cell-based; conditions: Streptococcus pneumoniae, Streptococcus pneumonia, SP-BIM at 50 μg mL^−1
[8] = test system: Salmonella typhimurium ATCC 14028; assay: Broth microdilution MIC of SP-BIMs; format: cell-based; conditions: Salmonella enterica, read-out: MIC Salmonella tvpkimurium ATCC 14028
Source text: Reference microorganisms used in this study included: Bacillus cereus (American Type Culture Collection (ATCC) No. 14579), Streptococcus pyogenes (ATCC No. 19615), Staphylococcus aureus (ATCC No. 12600), Enterococcus faecium (ATCC No. 19434), Corynebacterium diphtheriae (ATCC No. 27010), Escherichia coli (ATCC No. 35218), Salmonella typhimurium (ATCC No. 14028), Pseudomonas aeruginosa (ATCC No. 27853), Klebsiella pneumoniae (ATCC No. 49472), and Candida albicans (ATCC No. 22972).
Prior to each experiment, cultures were streaked onto clean BHI agar plates and incubated at 35° C. for 24 hours. Colonies of the respective cultures were selected and inoculated in phosphate buffer saline (pH 7.5) to a 0.5 McFarland turbidity standard (equivalent to 10^8 CFU mL^−1). The bacterial suspension was then diluted 1:100 in cation adjusted Mueller Hinton Broth (ca-MHB) (Oxoid Ltd, Basingstoke, Hampshire, England).
Stock solutions (50 mg mL^−1) of the SP-BIM test compounds were prepared in DMSO and stored at 4° C. Working preparations of each compound was made up to 1 mg/mL in sterile deionized water with a final DMSO concentration of 10%.
To assess the antibiotic properties of the library of SP-BIMs, the broth microdilution assay was performed in 96-well microplates according to the Clinical and Laboratory Standards Institute 2014 Guidelines (CLSI 2014). The broth microdilution assay was used to determine the minimum inhibitory concentration (MIC). […] Bacterial cells (˜10^6 CFU mL^−1) were inoculated into cation adjusted-Mueller Hinton broth containing the test compound in a twofold serial dilution ranging between 250 μg mL^−1 and 0.02 μg mL^−1. Plates were incubated at 35° C. for 18 hours after which 50 μL of 5% resazurin solution was added to each well. Resazurin is a blue dye which, upon reduction by living cells, turns to a pink resorufin product. Plates were shaken for 1 hour after the addition of the dye. The MIC was recorded as the well with the lowest concentration of test compound where no color change was observed.

[9] = test system: Candida albicans ATCC 22972; assay: Broth microdilution MIC of SP-BIMs; format: cell-based; conditions: ATCC22972, SP-BIM alone, read-out: MIC Candida albicans ATCC 22972
[10] = test system: Staphylococcus aureus ATCC 12600; assay: Broth microdilution MIC of SP-BIMs; format: cell-based; conditions: ATCC12600, SP-BIM alone, read-out: MIC Staphylococcus aureus ATCC 12600
[11] = test system: Corynebacterium diphtheriae ATCC 27010; assay: Broth microdilution MIC of SP-BIMs; format: cell-based; conditions: ATCC27010, SP-BIM alone, read-out: MIC Corynebacterium diphtheriae ATCC 27010
Staphylococcus aureus = assay: Checkerboard synergy (FICI) of antibiotics with SP-BIM; format: cell-based; conditions: Staphylococcus aureus, Staphylococcus aureus; for MIC: 24 h, antibiotic alone, read-out: MIC antibiotic only
Candida albicans = assay: as above; set-up: MIC SP-BIM 13 only / MIC in combination: Antibiotic / MIC antibiotic only: unit not given beside the values
Klebsiella pneumoniae = assay: as above; format: cell-based; conditions: for MIC: 24 h, antibiotic alone, read-out: MIC antibiotic only
Streptococcus pneumoniae [12] = assay: as above; format: cell-based; conditions: for MIC: 24 h, antibiotic alone, read-out: MIC antibiotic only
Escherichia coli = assay: as above; set-up: MIC SP-BIM 13 only / MIC in combination: Antibiotic: unit not given beside the values; conditions: for MIC: 24 h
Enterococcus faecium = assay: as above; format: cell-based; conditions: Enterococcus faecium, Enterococcus faecium; for MIC: 24 h, antibiotic alone, read-out: MIC antibiotic only
Bacillus cereus = assay: as above; format: cell-based
[13] = SP-BIM 9 in combination with the labelled antibiotic
[14] = SP-BIM 13 in combination with the labelled antibiotic
[15] = antibiotic in combination with SP-BIM 9
[16] = antibiotic in combination with SP-BIM 13
[17] = MIC of the antibiotic in combination with SP-BIM 13
[18] = Streptococcus pneumonia (title: Streptococcus pyogenes), antibiotic + SP-BIM 9
[19] = Streptococcus pneumoniae, antibiotic + SP-BIM 13

c1cc(C(c2c[nH]c3ccccc23)c2c[nH]c3ccccc23)cc(C(c2c[nH]c3ccccc23)c2c[nH]c3ccccc23)c1 [SP-BIM 7, 1,3-bis[bis(indoly-3-yl)methyl]benzene]
MIC [1]: > 250 µg/mL
MIC [2]: > 250 µg/mL
MIC [3]: > 250 µg/mL
MIC [4]: > 250 µg/mL
MIC [5]: 250 µg/mL
MIC [6]: > 250 µg/mL
MIC (Streptococcus pneumoniae [7]; read-out: MIC of Kanamvcin with SP-BIM): 125 µg/mL
MIC (Streptococcus pneumoniae [7]; read-out: MIC of Vancomvcin with SP-BIM): 1 µg/mL
MIC [8]: 250 µg/mL
MIC [9]: 250 µg/mL
MIC [10]: > 250 µg/mL
MIC [11]: > 250 µg/mL

O=C(O)c1cn(C2CC2)c2cc(N3CCNCC3)c(F)cc2c1=O [Ciprofloxacin, ciprofloxacin]
MIC (Staphylococcus aureus; SP-BIM 9 checkerboard): 1 µg/mL
MIC (Staphylococcus aureus; SP-BIM 13 checkerboard): 1 µg/mL
FIC of SP-BIM 9 (Staphylococcus aureus; [13]): 0.02
FIC of SP-BIM 13 (Staphylococcus aureus; [14]): 0.5
Interpretation (Staphylococcus aureus; antibiotic + SP-BIM 9): Synergy (Synergy: FICI≤0.5)
Σ FIC (Staphylococcus aureus; antibiotic + SP-BIM 9): <0.52
Interpretation (Staphylococcus aureus; antibiotic + SP-BIM 13): Additive (Additive: FICI>0.5-1.0)
Σ FIC (Staphylococcus aureus; antibiotic + SP-BIM 13): 1.0
MIC in combination, Antibiotic (Staphylococcus aureus; [15]): 0.5 µg/mL
MIC in combination, Antibiotic (Staphylococcus aureus; [16]): 0.5 µg/mL
FIC of antibiotic (Staphylococcus aureus; in combination with SP-BIM 9): 0.50
FIC of antibiotic (Staphylococcus aureus; in combination with SP-BIM 13): 0.5
MIC (Candida albicans; 24 h, read-out: MIC antibiotic only): 63 µg/mL
MIC in combination: Antibiotic (Candida albicans; [17]): 63
FIC of SP-BIM 13 (Candida albicans; [14]): 1.0
Interpretation (Candida albicans; antibiotic + SP-BIM 13): Indifferent (Indifferent: FICI>1.0-4.0)
Σ FIC (Candida albicans; antibiotic + SP-BIM 13): <2.0
FIC of antibiotic (Candida albicans; combination with SP-BIM 13): 1.0
MIC (Klebsiella pneumoniae; SP-BIM 9 checkerboard): 2 µg/mL
MIC (Klebsiella pneumoniae; SP-BIM 13 checkerboard): 2 µg/mL
FIC of SP-BIM 9 (Klebsiella pneumoniae; [13]): 0.252
FIC of SP-BIM 13 (Klebsiella pneumoniae; [14]): 0.1
Interpretation (Klebsiella pneumoniae; antibiotic + SP-BIM 9): Synergy (Synergy: FICI≤0.5)
Σ FIC (Klebsiella pneumoniae; antibiotic + SP-BIM 9): <0.5
Interpretation (Klebsiella pneumoniae; antibiotic + SP-BIM 13): Synergy (Synergy: FICI≤0.5)
Σ FIC (Klebsiella pneumoniae; antibiotic + SP-BIM 13): <0.4
MIC in combination, Antibiotic (Klebsiella pneumoniae; [15]): 0.5 µg/mL
MIC in combination, Antibiotic (Klebsiella pneumoniae; [16]): 0.5 µg/mL
FIC of antibiotic (Klebsiella pneumoniae; in combination with SP-BIM 9): 0.25
FIC of antibiotic (Klebsiella pneumoniae; in combination with SP-BIM 13): 0.3
FIC of SP-BIM 9 (Streptococcus pneumoniae [12]; Streptococcus pneumonia (title: Streptococcus pyogenes), SP-BIM 9 in combination with the labelled antibiotic): 0.26
Interpretation (Streptococcus pneumoniae [12]; [18]): Synergy (Synergy: FICI≤0.5)
Σ FIC (Streptococcus pneumoniae [12]; [18]): <0.27
FIC of antibiotic (Streptococcus pneumoniae [12]; Streptococcus pneumonia (title: Streptococcus pyogenes), in combination with SP-BIM 9): 0.01
MIC (Streptococcus pneumoniae [12]; Streptococcus pneumoniae, Streptococcus pneumonia (title: Streptococcus pyogenes), SP-BIM 9 checkerboard): 2 µg/mL
MIC (Streptococcus pneumoniae [12]; Streptococcus pneumoniae, Streptococcus pneumoniae, SP-BIM 13 checkerboard): 2 µg/mL
FIC of SP-BIM 13 (Streptococcus pneumoniae [12]; Streptococcus pneumoniae, SP-BIM 13 in combination with the labelled antibiotic): 0.5
Interpretation (Streptococcus pneumoniae [12]; [19]): Additive (Additive: FICI>0.5-1.0)
Σ FIC (Streptococcus pneumoniae [12]; [19]): <1.0
MIC in combination, Antibiotic (Streptococcus pneumoniae [12]; Streptococcus pneumoniae, antibiotic in combination with SP-BIM 13): 1 µg/mL
FIC of antibiotic (Streptococcus pneumoniae [12]; Streptococcus pneumoniae, in combination with SP-BIM 13): 0.5
MIC (Escherichia coli; read-out: MIC antibiotic only, Escherichia coli, antibiotic alone): 2 µg/mL
MIC (Escherichia coli; read-out: MIC antibiotic only, Escherichia coli, antibiotic alone, SP-BIM 9 checkerboard): 2 µg/mL
MIC in combination: Antibiotic (Escherichia coli; [17]): 1
FIC of SP-BIM 9 (Escherichia coli; [13]): 0.128
FIC of SP-BIM 13 (Escherichia coli; [14]): 0.1
Interpretation (Escherichia coli; antibiotic + SP-BIM 9): Synergy (Synergy: FICI≤0.5)
Σ FIC (Escherichia coli; antibiotic + SP-BIM 9): <0.4
Interpretation (Escherichia coli; antibiotic + SP-BIM 13): Additive (Additive: FICI>0.5-1.0)
Σ FIC (Escherichia coli; antibiotic + SP-BIM 13): <0.6
FIC of antibiotic (Escherichia coli; combination with SP-BIM 13): 0.5
FIC of antibiotic (Escherichia coli; in combination with SP-BIM 9): 0.25
MIC (Enterococcus faecium; SP-BIM 9 checkerboard): 8 µg/mL
MIC (Enterococcus faecium; SP-BIM 13 checkerboard): 8 µg/mL
FIC of SP-BIM 13 (Enterococcus faecium; [14]): 0.5
Interpretation (Enterococcus faecium; antibiotic + SP-BIM 13): Additive (Additive: FICI>0.5-1.0)
Σ FIC (Enterococcus faecium; antibiotic + SP-BIM 13): 0.6
MIC in combination, Antibiotic (Enterococcus faecium; [16]): 1 µg/mL
FIC of antibiotic (Enterococcus faecium; in combination with SP-BIM 13): 0.1
MIC (Bacillus cereus; 24 h, antibiotic alone, SP-BIM 9 checkerboard, read-out: MIC antibiotic only): 8 µg/mL
MIC in combination, SP-BIM 9 (Bacillus cereus; SP-BIM 9 concentration in combination with the labelled antibiotic): 16 µg/mL
FIC of SP-BIM 9 (Bacillus cereus; [13]): 0.064
FIC of SP-BIM 13 (Bacillus cereus; [14]): 0.0
Interpretation (Bacillus cereus; antibiotic + SP-BIM 9): Synergy (Synergy: FICI≤0.5)
Σ FIC (Bacillus cereus; antibiotic + SP-BIM 9): <0.3
Interpretation (Bacillus cereus; antibiotic + SP-BIM 13): Additive (Additive: FICI>0.5-1.0)
Σ FIC (Bacillus cereus; antibiotic + SP-BIM 13): 1.0
MIC in combination, Antibiotic (Bacillus cereus; [15]): 2 µg/mL
FIC of antibiotic (Bacillus cereus; in combination with SP-BIM 9): 0.25
FIC of antibiotic (Bacillus cereus; in combination with SP-BIM 13): 1.00
